What was measured:
[1] = Induction of CYP3A4 mRNA expression level in human hepatocytes at 10 uM incubated for 24 hrs by q-PCR analysis; assay type: ADME, cell-based, Hepatocyte
Hepatitis B virus = assay: Antiviral activity against HBV stably transfected in human HepG2.2.15 cells assessed as reduction of HBV DNA replication incubated for 5 days by q-PCR analysis; assay type: functional, organism-based; conditions: HepG2 2.2.15, 120 h
[2] = Cytotoxicity against human HepDE19 cells assessed as reduction in cell viability incubated for 5 days by CCK-8 assay; assay type: functional; conditions: HepDE19, 120 h, time 5 day
[3] = target: Voltage-gated inwardly rectifying potassium channel KCNH2 (Homo sapiens, UniProt Q12809); assay: (§1) Inhibition of hERG stably expressed in CHO cells by whole-cell voltage-clamp assay; assay type: toxicity, cell-based
Voltage-gated inwardly rectifying potassium channel KCNH2, sequence (Q12809 whole entry): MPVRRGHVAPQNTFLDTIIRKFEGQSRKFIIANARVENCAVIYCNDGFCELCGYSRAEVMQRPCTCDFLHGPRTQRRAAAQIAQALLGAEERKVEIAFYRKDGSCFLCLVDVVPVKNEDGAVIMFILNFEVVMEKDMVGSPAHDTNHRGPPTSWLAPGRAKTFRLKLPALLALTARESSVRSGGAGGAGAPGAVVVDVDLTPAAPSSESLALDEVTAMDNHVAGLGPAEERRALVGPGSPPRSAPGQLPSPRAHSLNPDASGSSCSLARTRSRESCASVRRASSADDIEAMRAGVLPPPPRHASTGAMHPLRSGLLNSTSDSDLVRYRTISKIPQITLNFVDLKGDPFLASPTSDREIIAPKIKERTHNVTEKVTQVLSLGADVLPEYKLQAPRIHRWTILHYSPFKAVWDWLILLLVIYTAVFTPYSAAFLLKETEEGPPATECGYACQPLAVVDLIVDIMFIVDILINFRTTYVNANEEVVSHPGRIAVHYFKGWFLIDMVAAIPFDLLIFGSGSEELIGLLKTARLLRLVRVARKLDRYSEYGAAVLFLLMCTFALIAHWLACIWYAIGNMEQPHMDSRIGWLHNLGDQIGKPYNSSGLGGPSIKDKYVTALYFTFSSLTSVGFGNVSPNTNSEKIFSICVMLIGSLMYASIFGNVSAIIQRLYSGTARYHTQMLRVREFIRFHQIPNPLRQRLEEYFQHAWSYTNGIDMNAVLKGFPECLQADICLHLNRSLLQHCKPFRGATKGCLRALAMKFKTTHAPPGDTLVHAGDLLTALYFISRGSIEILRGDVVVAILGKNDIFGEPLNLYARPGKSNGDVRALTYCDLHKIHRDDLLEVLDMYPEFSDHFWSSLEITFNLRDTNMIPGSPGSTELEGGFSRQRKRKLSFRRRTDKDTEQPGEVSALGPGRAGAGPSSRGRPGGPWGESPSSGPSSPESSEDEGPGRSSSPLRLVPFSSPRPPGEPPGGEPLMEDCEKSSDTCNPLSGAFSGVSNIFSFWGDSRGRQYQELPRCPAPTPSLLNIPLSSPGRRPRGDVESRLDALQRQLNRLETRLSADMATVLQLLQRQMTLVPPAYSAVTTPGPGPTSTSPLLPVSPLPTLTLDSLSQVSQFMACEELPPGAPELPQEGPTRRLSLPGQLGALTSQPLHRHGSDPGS

hERG = hERG (Homo sapiens, UniProt Q12809); assay: as §1; assay type: toxicity, cell-based; conditions: human, CHO cells stably expressing hERG
hERG, sequence (Q12809 whole entry): as above

[4] = Clearance in human liver microsomes at 1 uM measured upto 30 mins in presence of NADPH by LC-MS/MS analysis; assay type: ADME, Microsome
[5] = Octanol-water partition coefficient, logD of the compound at pH 7.4; assay type: physicochemical

Structure (SMILES)	Activity [1] [%]	EC50 (Hepatitis B virus) [nM]	CC50 [2] [nM]	IC50 [3] [nM]	IC20 (hERG) [nM]	CLhep predicted at 1 µM [4] [mL/min/kg]	logD [5]
CCOC(=O)C1=C(CN2C[C@H]3CN(C4CC4)C(=O)N3C[C@@H]2C(=O)O)NC(c2nccs2)=N[C@H]1c1ccc(F)cc1Cl	6	2	> 100000	> 20000	> 10000	2.7	
COC(=O)C1=C(CN2CCN(C(C)=O)CC2)NC(c2nccs2)=N[C@H]1c1ccc(F)cc1Cl		50	> 100000				
COC(=O)C1=C(CN2CCN3C(=O)N(c4ccc(C(=O)O)cc4)C[C@@H]3C2)NC(c2nccs2)=N[C@H]1c1ccc(F)cc1Cl (single isomer, unassigned)		2		> 10000	4000	0.43	
COC(=O)C1=C(CN2CCOC[C@H]2C(=O)O)N=C(c2nccs2)N[C@H]1c1ccc(F)cc1Cl	110	3	> 100000				
COC(=O)C1=C(CN2CCc3c([nH][nH]c3=O)C2)NC(c2nccs2)=N[C@H]1c1ccc(F)cc1Cl	13	750	> 100000				
COC(=O)C1=C(CN2CCN3C(=O)OC[C@@H]3C2)NC(c2nccs2)=N[C@H]1c1ccc(F)cc1Cl	70	3	79000				
COC(=O)C1=C(CN2CCN3C(=O)OCCC3C2)NC(c2nccs2)=N[C@H]1c1ccc(F)cc1Cl (stereo not given in full)		100	62000				
COC(=O)C1=C(CN2CCN3C(=O)N(c4cccc(C(=O)O)c4)C[C@@H]3C2)NC(c2nccs2)=N[C@H]1c1ccc(F)cc1Cl (single isomer, unassigned)		7	33000			0.3	
CCOC(=O)C1=C(CN2CCN3C(=O)N(c4ccc(C(=O)O)cc4)C[C@@H]3C2)NC(c2nccs2)=N[C@H]1c1ccc(F)cc1Cl (single isomer, unassigned)		2	28000				
COC(=O)C1=C(CN2CCN3C(=O)N([C@H]4CC[C@H](C(=O)O)CC4)C[C@@H]3C2)NC(c2nccs2)=N[C@H]1c1ccc(F)cc1Cl		9	43000			5.2	
COC(=O)C1=C(CN2CCN3C(=O)N(CC(C)(C)C(=O)O)C[C@@H]3C2)NC(c2nccs2)=N[C@H]1c1cccc(F)c1C		16	> 100000				1.26
CCOC(=O)C1=C(CN2C[C@H]3CN(C4CC4)C(=O)N3C[C@H]2C(=O)O)NC(c2nccs2)=N[C@H]1c1ccc(F)cc1Cl		145	> 100000			1.7	
COC(=O)C1=C(CN2CCN3C(=O)N(CC4(C(=O)O)CCC4)C[C@@H]3C2)NC(c2nccs2)=N[C@H]1c1ccc(F)cc1Cl	2.2	11	> 100000	> 20000	7200	2.3	
CCOC(=O)C1=C(CN2C[C@H]3CN(C)C(=O)N3C[C@@H]2C(=O)O)NC(c2nccs2)=N[C@H]1c1cccc(F)c1Cl	1.7	2	> 100000	> 20000	> 10000	5.8	
COC(=O)C1=C(CN2CCN3C(=O)N([C@H]4C[C@H](C(=O)O)C4)C[C@@H]3C2)NC(c2nccs2)=N[C@H]1c1ccc(F)cc1Cl		34	43000				
COC(=O)C1=C(CN2CCN3C(=O)N(CC(C)(C)C(=O)O)C[C@@H]3C2)NC(c2nccs2)=N[C@H]1c1cccc(F)c1Cl		14	> 100000				1.21
COC(=O)C1=C(CN2CCN3C(=O)CC[C@@H]3C2)NC(c2nccs2)=N[C@H]1c1ccc(F)cc1Cl	44	14	45000				

Structure (SMILES)	Activity [1] [%]	EC50 (Hepatitis B virus) [nM]	CC50 [2] [nM]	IC50 [3] [nM]	IC20 (hERG) [nM]	CLhep predicted at 1 µM [4] [mL/min/kg]	logD [5]
CCOC(=O)C1=C(CN2CCN3C(=O)N(c4ccccc4C(=O)O)C[C@@H]3C2)NC(c2nccs2)=N[C@H]1c1ccc(F)cc1Cl (single isomer, unassigned)		30				4.4	
COC(=O)C1=C(CN2CCN3C(=O)N(CC4(C(=O)O)CC4)C[C@@H]3C2)NC(c2nccs2)=N[C@H]1c1ccc(F)cc1Cl		11	> 100000	7800	2300	0.3	
COC(=O)C1=C(CN2CCN3C(=O)CC[C@H]3C2)NC(c2nccs2)=N[C@H]1c1ccc(F)cc1Cl		160	71000				
CCOC(=O)C1=C(CN2CCN3C(=O)N(C(C)(C)C(=O)O)C[C@@H]3C2)NC(c2nccs2)=N[C@H]1c1ccc(F)cc1Cl		200	61000			1.6	
COC(=O)C1=C(CN2CCN3C(=O)N(CCC(C)(C)C(=O)O)C[C@@H]3C2)NC(c2nccs2)=N[C@H]1c1ccc(F)cc1Cl	0	8	> 100000			4.6	
COC(=O)C1=C(CN2CCN3CCCC3C2)NC(c2nccs2)=N[C@H]1c1ccc(F)cc1Cl (stereo not given in full)		> 1000					
COC(=O)C1=C(CN2CCN3C(=O)NC[C@H]3C2)NC(c2nccs2)=N[C@H]1c1ccc(F)cc1Cl		150	89000				
CCOC(=O)C1=C(CN2C[C@H]3CN(C)C(=O)N3C[C@H]2C(=O)O)NC(c2nccs2)=N[C@H]1c1cccc(F)c1Cl		150	> 100000				
COC(=O)C1=C(CN2CCN3C(=O)COCC3C2)NC(c2nccs2)=N[C@H]1c1ccc(F)cc1Cl (stereo not given in full)		55	68000				
COC(=O)C1=C(CN2CCN3C(=O)N(C(C)(C)CC(=O)O)C[C@@H]3C2)NC(c2nccs2)=N[C@H]1c1ccc(F)cc1Cl		30	> 100000			2.5	
COC(=O)C1=C(CN2CCN3C(=O)N([C@H]4C[C@@H](C(=O)O)C4)C[C@@H]3C2)NC(c2nccs2)=N[C@H]1c1ccc(F)cc1Cl		30	> 100000			0.4	
COC(=O)C1=C(CN2CCN3C(=O)OC[C@H]3C2)NC(c2nccs2)=N[C@H]1c1ccc(F)cc1Cl		23	76000				
COC(=O)C1=C(CN2CCN3C(=O)NC[C@@H]3C2)NC(c2nccs2)=N[C@H]1c1ccc(F)cc1Cl	17	2	52000				
COC(=O)C1=C(CN2CCN3C(=O)N(C4CCC(C(=O)O)CC4)C[C@@H]3C2)NC(c2nccs2)=N[C@H]1c1ccc(F)cc1Cl (stereo not given in full)	0	9	70000	> 20000	> 10000	8.1	
CCOC(=O)C1=C(CN2CCN3C(=O)N(CC(C)C(=O)O)C[C@@H]3C2)NC(c2nccs2)=N[C@H]1c1ccc(F)cc1Cl (stereo not given in full)	2.4	16	> 100000	> 20000	> 10000	2.7	
CCOC(=O)C1=C(CN2C[C@H]3CN(C(C)(C)C)C(=O)N3C[C@H]2C(=O)O)NC(c2nccs2)=N[C@H]1c1ccc(F)cc1Cl		62	> 100000				
